According to ChEMBL document CHEMBL4616604, “Comparing a thioglycosylated chlorin and phthalocyanine as potential theranostic agents” (Bioorg Med Chem, 2020):

Experiments:
[1] = Drug uptake in human MDA-MB-231 cells at 1 uM incubated for 24 hrs by fluorescence imaging analysis; type: ADME, cell-based; settings: mda-mb-231, 24 h
MCF7 [2] = experiment: Phototoxicity against human MCF7 cells assessed as inhibition of cell viability incubated with compound for 2 hrs followed by irradiation with 0.92 mW cm'-2 light and measured after overnight incubation by CellTiter Blue assay; type: functional, cell-based; settings: MCF7, light or radiation study
MDA-MB-231 [3] = experiment: Dark cytotoxicity against human MDA-MB-231 cells assessed as inhibition of cell viability incubated for 24 hrs by CellTiter Blue assay; type: cell-based; settings: MDA-MB-231, 24 h
[4] = Drug uptake in athymic mouse xenografted with HNSCC cells at 0.1 mM administered iv measured up to 4 days post-drug administration by IVIS spectrum in vivo fluorescence imaging analysis; type: ADME, organism-based; settings: 96 h, 100 µM
[5] = Time dependent drug uptake in human MCF7 cells at 10 uM incubated up to 24 hrs by spectrofluorometric analysis; type: ADME, cell-based; settings: mcf7, 24 h
[6] = Drug uptake in human MCF7 cells at 1 uM incubated for 24 hrs by fluorescence imaging analysis; type: ADME, cell-based; settings: mcf7, 24 h
MCF7 [7] = experiment: Dark cytotoxicity against human MCF7 cells assessed as inhibition of cell viability incubated for 24 hrs by CellTiter Blue assay; type: cell-based; settings: MCF7, 24 h
[8] = Time dependent drug uptake in human MDA-MB-231 cells at 10 uM incubated up to 24 hrs by spectrofluorometric analysis; type: ADME, cell-based; settings: mda-mb-231, 24 h
MDA-MB-231 [9] = experiment: Phototoxicity against human MDA-MB-231 cells assessed as inhibition of cell viability incubated with compound for 2 hrs followed by irradiation with 0.92 mW cm'-2 light and measured after overnight incubation by CellTiter Blue assay; type: functional, cell-based; settings: MDA-MB-231, light or radiation study

Drug uptake [1]: Active
Drug uptake [4]: Active
Drug uptake [5]: Active
Drug uptake [6]: Active
Drug uptake [8]: Active
Compound: CN1CC2c3nc(c(-c4c(F)c(F)c(S[C@@H]5O[C@H](CO)[C@@H](O)[C@H](O)[C@H]5O)c(F)c4F)c4ccc([nH]4)c(-c4c(F)c(F)c(S[C@@H]5O[C@H](CO)[C@@H](O)[C@H](O)[C@H]5O)c(F)c4F)c4nc(c(-c5c(F)c(F)c(S[C@@H]6O[C@H](CO)[C@@H](O)[C@H](O)[C@H]6O)c(F)c5F)c5ccc([nH]5)c3-c3c(F)c(F)c(S[C@@H]5O[C@H](CO)[C@@H](O)[C@H](O)[C@H]5O)c(F)c3F)C=C4)C2C1 (some centres undefined)
IC50 (MCF7 [2]): 1000 to 2000 nM
IC50 (MDA-MB-231 [3]): > 100000 nM
IC50 (MCF7 [7]): > 100000 nM
IC50 (MDA-MB-231 [9]): 1000 to 2000 nM
